Measurements: publication PMC4481955, “Sensitive, Fast, and Specific Immunoassays for Methyltestosterone Detection” (Sensors (Basel, Switzerland), 2015)

Tests used:
[1] = test system: anti-MT mAb; assay: indirect competitive ELISA (icELISA) with anti-MT monoclonal antibody; format: binding, mouse; settings: for CR (%): CR = (IC50 of MT/IC50 of competition analogue) x 100%
Description: (§1) Checkerboard titration was used for the determination of optimum coating antigen and antibody concentrations in icELISA. A 96-well microplate was coated with 100 μL/well MT-CMO-OVA (0.1 μg/mL, in 0.05 M CBS, pH 9.6) and incubated overnight at 4 °C. The wells were washed three times with washing buffer (0.01 M, PBS, containing 0.2% Tween 20) to remove free coating antigen and blocked with 220 μL blocking buffer (0.05 M, 0.2% Gelatin in CBS) at 37 °C for 2 h.
After washing, 50 μL of different concentrations of standard and 50 μL of antibody were added to wells and incubated at 37 °C for 30 min. Following another wash to remove unbound antibody and standards, 100 μL of 1:3000 diluted HRP-labelled goat anti-mouse IgG was added to each well and incubated for 30 min at 37 °C. After washing three times, 100 μL of substrate was added and incubated for 15 min at 37 °C. The enzymatic reaction was stopped with 50 μL sulfuric acid (2 M) per well. A microplate reader was used to determine the absorbance of each well at 450 nm.
Three immunoassay parameters (methanol content, ionic strength and pH of the solvent) were optimized to improve both the stability and sensitivity of icELISA. The criteria used to evaluate immunoassay performance were half inhibition concentration (IC50), maximum absorbance (Amax) and Amax/IC50. To optimize the methanol content in the solvent, PBS was mixed with different contents of methanol (0%, 5%, 10% and 20%). For ionic strength optimization, different concentrations of PBS (5, 10, 20, and 40 mM) were used. Finally, for solvent pH optimization, PBS was adjusted to different pH values (4.7–9.6).
In this study, mAb specificity was investigated by cross-reactivity (CR). Competition analogues (testosterone, nor-testosterone, estradiol, estriol, progesterone, epitestosterone, dihydrotestosterone and dexamethasone) were prepared in methanol at 1 mg/mL. A series of standard solutions (0, 1, 2, 5, 10, 20, 50 and 100 ng/mL) were diluted with optimized PBS and subjected to icELISA. CR values were calculated with the following formula: CR (%) = (IC50 of MT/IC50 of competition analogue) × 100%

[2] = test system: antisera (mouse No. 16), anti-MT activity; assay: icELISA screening of mouse antiserum for anti-MT activity; format: binding; settings: mouse No. 16, after two subsequent injections, MT in PBS
Description: Female BALB/c mice (8–10 weeks old) were injected subcutaneously at multiple sites with the immunogen MT-CMO-BSA (100 μg in 0.1 mL saline) emulsified with an equal volume of Freund’s complete adjuvant. For subsequent boosters administered at one-month intervals, Freund’s incomplete adjuvant was used. Antisera were collected following the third booster immunization and screened for anti-MT activity by icELISA [27]. The mouse with the highest anti-MT activity was administered the immunogen (20 μg in 0.2 mL saline) by intraperitoneal injection and sacrificed three days later for cell fusion.
as §1
After washing, 50 μL of different concentrations of standard and 50 μL of antibody were added to wells and incubated at 37 °C for 30 min. […] A microplate reader was used to determine the absorbance of each well at 450 nm.

[3] = optimized icELISA, PBS 10 mM, pH 7.4

Row | Structure (SMILES) | CR (%) [1] [%] | IC50 [1, 3] [ng/mL] | also measured
1 | C[C@@H]1C[C@H]2[C@@H]3CCC4=CC(=O)C=C[C@]4(C)[C@@]3(F)[C@@H](O)C[C@]2(C)[C@@]1(O)C(=O)CO [Dexamethasone] | <0.26 | >100 | 
2 | C[C@]12CCC(=O)C[C@@H]1CC[C@@H]1[C@@H]2CC[C@]2(C)[C@@H](O)CC[C@@H]12 [Dihydrotestosterone] | <0.26 | >100 | 
3 | C[C@]12CC[C@H]3[C@@H](CCC4=CC(=O)CC[C@@]43C)[C@@H]1CC[C@H]2O [Epitestosterone] | <0.26 | >100 | 
4 | C[C@]12CC[C@@H]3c4ccc(O)cc4CC[C@H]3[C@@H]1CC[C@@H]2O [Estradiol] | 0.52 | 50 | 
5 | C[C@]12CC[C@@H]3c4ccc(O)cc4CC[C@H]3[C@@H]1C[C@@H](O)[C@@H]2O [Estriol] | <0.26 | >100 | 
6 | C[C@]12CCC(=O)C=C1CC[C@@H]1[C@@H]2CC[C@@]2(C)[C@H]1CC[C@]2(C)O [Methyltestosterone] | 100 | 0.26 | IC50 ([1]; ionic strength (PBS) 5 mM): 0.68 ± 0.017 ng/mL; IC50 ([1]; ionic strength (PBS) 10 mM): 0.398 ± 0.024 ng/mL; IC50 ([1]; ionic strength (PBS) 20 mM): 0.565 ± 0.024 ng/mL; IC50 ([1]; ionic strength (PBS) 40 mM): 0.504 ± 0.092 ng/mL; IC50 ([1]; methanol content 0%): 0.418 ± 0.02 ng/mL; IC50 ([1]; methanol content 5%): 0.567 ± 0.023 ng/mL; IC50 ([1]; methanol content 10%): 0.418 ± 0.05 ng/mL; IC50 ([1]; methanol content 20%): 0.626 ± 0.009 ng/mL; IC50 ([1]; pH 4.7): 0.456 ng/mL; IC50 ([1]; pH 6.0): 0.723 ± 0.038 ng/mL; IC50 ([1]; pH 7.4): 0.455 ng/mL; IC50 ([1]; pH 8.6): 0.577 ± 0.026 ng/mL; IC50 ([1]; pH 9.6): 0.714 ± 0.007 ng/mL; IC50 of purified mAb ([1]; purified mAb from hybridoma 1E12, before optimization): 0.4 ng/mL; IC50 of antiserum [2]: approximately 3 ng/mL
7 | C[C@]12CC[C@H]3[C@@H](CCC4=CC(=O)CC[C@@H]43)[C@@H]1CC[C@@H]2O [Nor-testosterone] | 1.04 | 25 | 
8 | CC(=O)[C@H]1CC[C@H]2[C@@H]3CCC4=CC(=O)CC[C@]4(C)[C@H]3CC[C@]12C [Progesterone] | <0.26 | >100 | 
9 | C[C@]12CC[C@H]3[C@@H](CCC4=CC(=O)CC[C@@]43C)[C@@H]1CC[C@@H]2O [Testosterone] |  | 12 | 
